pIC50: −log10 of the molar value. “Also recorded” adds a separate entry of the source.
Target: T1, NR0B1-SNW1 interaction (Homo sapiens, UniProt P51843)
T1 construct: endogenous in cells; host or cells: NR0B1: H2122 cell lysate
T1 sequence (P51843 1-470): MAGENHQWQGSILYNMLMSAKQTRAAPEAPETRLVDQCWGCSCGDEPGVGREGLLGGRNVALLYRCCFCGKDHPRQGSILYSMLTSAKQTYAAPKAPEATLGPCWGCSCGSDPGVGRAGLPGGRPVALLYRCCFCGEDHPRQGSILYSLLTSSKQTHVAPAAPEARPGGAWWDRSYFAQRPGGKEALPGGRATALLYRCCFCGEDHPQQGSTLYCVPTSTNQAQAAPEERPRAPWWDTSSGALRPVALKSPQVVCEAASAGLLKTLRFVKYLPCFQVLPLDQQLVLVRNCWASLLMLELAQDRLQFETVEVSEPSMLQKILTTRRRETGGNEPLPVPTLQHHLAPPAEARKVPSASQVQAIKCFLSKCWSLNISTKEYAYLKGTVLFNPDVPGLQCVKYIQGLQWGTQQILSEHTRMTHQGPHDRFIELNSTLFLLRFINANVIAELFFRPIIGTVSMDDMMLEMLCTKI
Experiment: In vitro binding assay: NR0B1 in H2122 lysate binding to immobilized FLAG-SNW1
Details: for pIC50: in vitro, read-out: IC50, inhibition of the NR0B1-SNW1 interaction
Description: H2122 clarified cell lysate (100 μL, 1 mg ml^−1) in IP-buffer were incubated with the indicated compounds or vehicle (DMSO) for 3 hours at 4° C. with rotation. Following treatment, 3 volumes of IP-buffer was added along with immobilized FLAG-SNW1 beads (30 μL, 50:50 slurry), which was incubated for an additional hour at 4° C. Beads were washed three times with IP-buffer supplemented with 500 mM NaCl. Immunoprecipitated proteins were resolved by SDS-PAGE and analyzed by immunoblotting. NR0B1 and HA-NR0B1 levels were determined by using the NR0B1 antibody (Cell Signaling). IC50 curves were determined using Prism 6 (Graphpad) software, with maximum and minimum values set at 100% NR0B1 bound 0% NR0B1 bound respectively.
Statistical analysis was preformed using GraphPad Prism version 6 or 7 for Mac, GraphPad Software, La Jolla Calif. USA, or the R statistical programming language. Inhibition curves of the NR0B1-SNW1 interactions by NR0B1-ligand are fit as using log(inhibitor) vs % normalized remaining of NR0B1-SNW1 interaction and data points are plotted as the mean±SD (n=2-5 per group). NR0B1 half-life was calculated from a one-phase exponential decay curve plotted as mean±SD (4-10 per group). Statistical significance was defined as p<0.05 and determined by 2-tailed Student's t-test (FIG. 1I, FIG. 3B), two-way Anova with Bonferroni post-test analysis (FIG. 1J) or correlation analysis using Pearson product-moment correlation coefficient (FIG. 4B, FIG. 10G).
Next, a chemical probe targeting C274 of NR0B1 was developed. Using an in vitro binding assay (FIG. 5B), an ˜80-member library of cysteine-reactive electrophilic compounds was screened at 50 μM for blockade of interactions between endogenous NR0B1 and recombinant FLAG-SNW1 in cell lysates (FIG. 5C). Among the hits (>50% blockade) were a series of N-disubstituted chloroacetamides (CAs), including BPK-26 (FIGS. 5D, 5E), that were selected for further investigation. […] Both BPK-26 and BPK-29 inhibited the NR0B1-SNW1 interaction with IC50 values between 10-20 μM in vitro (FIG. 11C).

| inhibition of the NR0B1-SNW1 interaction (tested concentration range of 1-50 μM) | pIC50 | blockade of interactions between endogenous NR0B1 and recombinant FLAG-SNW1 (screened at 50 μM in cell lysates) [%] | Compound | relative potency for inhibition of FLAG-SNW1 binding to NR0B1 (structure-activity relationship) (compounds at 50 μM) |
| --- | --- | --- | --- | --- |
| did not inhibit | – | – | O=C(c1ccc(N2CCOCC2)cc1)N1CCC(CN(C(=O)CCl)c2cncnc2)CC1 [BPK-9, 2-chloro-N-((1-(4-morpholinobenzoyl)piperidin-4-yl)methyl)-N-(pyrimidin-5-yl)acetamide] | – |
| – | 4.70 to 5.00 | > 50 | O=C(CCl)N(Cc1cccc(Cl)c1F)c1ccc(Cl)nc1 [BPK-26, 2-chloro-N-(3-chloro-2-fluorobenzyl)-N-(6-chloropyridin-3-yl)acetamide] | – |
| – | 4.70 to 5.00 | – | O=C(c1ccc(N2CCOCC2)cc1)N1CCCC(N(Cc2ccccc2)C(=O)CCl)CC1 (centres unmarked) [BPK-29, N-benzyl-2-chloro-N-(1-(4-morpholinobenzoyl)azepan-4-yl)acetamide] | the most potent analogue; also recorded: recovered potency |

From US20200278355A1, “CONJUGATED PROTEINS AND USES THEREOF” (THE SCRIPPS RESEARCH INSTITUTE, priority 2017, published 2020)
